Test results from patent US5578622A, “Isothiazole derivatives and their uses” (Asamura Patent Office, priority 1994, dated 1996).

Tests used:
Assay in all cases: Test for wood rotting-preventing effect (mycelium growth inhibition on malt extract agar)
Assay type in all cases: cell-based
Rhizopus nigricans = conditions: Rhizopus stolonifer, 28° C.±2° C., 2 to 10 days, read-out: Rotting preventing effect (mycelium growth-inhibitory rate), RHN
Description: (§1) The following fungi were cultured in agar media, respectively, and mycelial disks on the media were stamped out together with the agar using a cork borer of 4 mm in diameter. The resulting mycelial disks on agar were used as an inoculum. Each test compound of 50 ppm was added to a malt extract agar medium and added in parts to Petri dishes. The above prepared inoculum was put on the Petri dishes and cultured at 28° C.±2° C. Two to ten days after inoculation, the diameter of the mycelial disk of each fungus was measured, and the mycelium growth-inhibitory rate was obtained according to the following equation. [formula] The mycelium growth-inhibitory rate (%) is indicated by the following symbols as a fungicidal effect on each fungus, and the results are shown in Table 2. | RHN: Rhizopus nigricans

Aspergillus niger = conditions: 28° C.±2° C., 2 to 10 days, read-out: Rotting preventing effect (mycelium growth-inhibitory rate), ASN
Description: as §1, with “ASN: Aspergillus niger” for “RHN: Rhizopus nigricans”

Tyromyces palustris = conditions: 28° C.±2° C., 2 to 10 days, read-out: Rotting preventing effect (mycelium growth-inhibitory rate), TYP
Description: as §1, with “TYP: Tyromyces palustris” for “RHN: Rhizopus nigricans”

Trichoderma viride = conditions: 28° C.±2° C., 2 to 10 days, read-out: Rotting preventing effect (mycelium growth-inhibitory rate), TRV
Description: as §1, with “TRV: Trichoderma viride” for “RHN: Rhizopus nigricans”

SMILES	inhibition at 50 ppm (Rhizopus nigricans) [%]	inhibition at 50 ppm (Aspergillus niger) [%]	inhibition at 50 ppm (Tyromyces palustris) [%]	inhibition at 50 ppm (Trichoderma viride) [%]
CCSc1snc(OCC#CI)c1C#N [Compound 2]	80 to 94	60 to 79	95 to 100	80 to 94
N#Cc1c(OCC#CI)nsc1SC1CCCC1 [Compound 7]	60 to 79	60 to 79	95 to 100	60 to 79
C#CCSc1snc(OCC#CI)c1C#N [Compound 10]	80 to 94	95 to 100	95 to 100	80 to 94
N#Cc1c(OCC#CI)nsc1S(=O)(=O)C1CCCC1 [Compound 46]	60 to 79	80 to 94	95 to 100	60 to 79
CC(C)Oc1nsc(OCC#CI)c1C#N [Compound 51]	95 to 100	95 to 100	95 to 100	95 to 100
CC(C)Sc1snc(OCCC#CI)c1C#N [Compound 72]	95 to 100	95 to 100	95 to 100	95 to 100
COCCOc1nsc(OCCC#CI)c1C#N [Compound 84]	95 to 100	95 to 100	95 to 100	95 to 100
CSc1snc(OCOCC#CI)c1C#N [Compound 85]	95 to 100	95 to 100	95 to 100	95 to 100
CCCSc1snc(OCOCC#CI)c1C#N [Compound 87]	95 to 100	95 to 100	95 to 100	95 to 100
COc1snc(OCOCC#CI)c1C#N [Compound 95]	95 to 100	95 to 100	95 to 100	95 to 100
CC(C)Oc1snc(OCOCC#CI)c1C#N [Compound 98]	95 to 100	95 to 100	95 to 100	95 to 100
CCOc1nsc(SC(C)OCC#CI)c1C#N (stereo not drawn) [Compound 126]	95 to 100	95 to 100	95 to 100	95 to 100
CCSc1snc(SCOCC#CI)c1C#N [Compound 129]	80 to 94	80 to 94	95 to 100	95 to 100
C=CCSc1snc(SCOCC#CI)c1C#N [Compound 132]	95 to 100	95 to 100	95 to 100	95 to 100
N#Cc1c(OCC#CI)nsc1SCOCC#CI [Compound 142]	95 to 100	95 to 100	95 to 100	95 to 100
